The text below walks through data of PMC12471852, “Design and Synthesis of Marine-Inspired Itampolin A Derivatives to Overcome Chemoresistance in NSCLC via Cholesterol Homeostasis Modulation” (Marine Drugs, 2025).

“And” between values parts separate entries of the source, which are not always exact repeats. Equal entries are not always repeated. Where two headings read alike, the source gives them in different places.

For assay [1], the target named is T1, p38α (Homo sapiens, UniProt Q16539). The assay can be described thus: ADP-Glo Kinase Assay, p38α MAP kinase inhibition. The assay is classed as biochemical. The note with it: read-out: p38α MAP kinase inhibitory activity IC50. As to the method:
The capacity of brominated tyrosine derivatives to inhibit p38α activity was evaluated using the ADP-Glo Kinase Assay.
(In general: ADP-Glo first removes unused ATP, then detects ADP through luciferase.)

The test system of assay [2] is PC9 cells. The assay can be described thus: MTT anti-proliferation assay, PC9 cells. The class given is cell-based, human. The settings on record: for MTT, PC9, value relative to control (=100), single replicate: 24 h. As to the method: (§1) To evaluate the tumor-selective activity of compounds 4l and 4m, dose–response studies were performed on wild-type PC9 and gefitinib-resistant PC9/GR cell lines. […] Subtoxic concentrations of 25, 50, and 75 μM were employed to ensure specificity for drug-resistant phenotypes while preserving normal cell viability. […] To assess long-term proliferative potential, clonogenic survival assays were performed. Cells pretreated with 4l (24 h) were trypsinized to generate single-cell suspensions, plated at 300 cells/well, and cultured for 14 days. […] Cell migration ability was evaluated by the scratch healing assay. […] To evaluate the pro-apoptotic efficacy of 4l, we employed a dual-staining approach using Annexin V-FITC and propidium iodide (PI) for quadrant-specific quantification of programmed cell death. Annexin V binds externalized phosphatidylserine (PS), a hallmark of early apoptosis, while PI permeabilization discriminates late-stage apoptotic or necrotic cells.
(§2) The human normal lung epithelial cell line BEAS-2B, non-small cell lung carcinoma (NSCLC) cell line PC9, and gefitinib-resistant PC9/GR cell line were purchased from Procell Life Science & Technology Co., Ltd. (Wuhan, China). All cell lines were maintained in RPMI-1640 medium (BI, Beit Haemek, Mateh Asher, Israel) supplemented with 10% fetal bovine serum (FBS, Gibco, Thermo Fisher Scientific, Waltham, MA, USA) and 1% penicillin–streptomycin–amphotericin B sterile solution (Solarbio, Beijing, China). Cells were cultured at 37 °C in a humidified incubator with 5% CO2. For subculturing, cells were harvested using trypsin-EDTA solution upon reaching 70–80% confluence and resuspended at appropriate densities for subsequent experiments.
(§3) MTT: Cells (5 × 10^4/mL) were treated with 4l (25–100 μM, 24–48 h), incubated with MTT (10 μL/well, 4–6 h), and dissolved in DMSO. Absorbance (490 nm) was measured to assess viability.

In assay [3] the test system is PC9/GR cells. The assay can be described thus: MTT anti-proliferation assay, gefitinib-resistant PC9/GR cells. The class given is cell-based, human. The settings on record: for MTT, PC9/GR, value relative to control (=100), single replicate: 24 h. As to the method:
as §1, §2, §3
In general terms: Formazan colour is commonly taken as a measure of viable cells.

For assay [4], the target named is T1, p38α. Details: method as in PMID 30642059. The settings on record: compounds 6a–6o synthesized in previous work; read-out: p38α MAP kinase inhibitory activity IC50; cited from earlier work.

T1 sequence (Q16539 whole entry): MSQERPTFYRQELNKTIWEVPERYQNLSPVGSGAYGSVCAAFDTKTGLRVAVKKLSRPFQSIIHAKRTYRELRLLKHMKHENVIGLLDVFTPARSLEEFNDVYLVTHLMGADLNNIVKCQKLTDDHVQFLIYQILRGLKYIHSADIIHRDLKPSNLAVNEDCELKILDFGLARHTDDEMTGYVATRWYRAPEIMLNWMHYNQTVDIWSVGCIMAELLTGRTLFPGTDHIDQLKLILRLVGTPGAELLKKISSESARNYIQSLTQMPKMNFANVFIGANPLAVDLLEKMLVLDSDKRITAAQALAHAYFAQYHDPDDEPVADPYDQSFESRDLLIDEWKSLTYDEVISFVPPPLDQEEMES

What is called IC50 is the concentration that gives 50% inhibition. `O=C(NCCc1cc(Br)c(O)c(Br)c1)Nc1ccccc1Cl` [4j, 1-(2-chlorophenyl)-3-(3,5-dibromo-4-hydroxyphenethyl)urea]: in assay [1], the IC50 was 0.0744 ± 0.013 µM. Take `O=C(NCCc1cc(Br)c(O)c(Br)c1)Nc1ccc(OCCCN2CCOCC2)cc1` [4g, 1-(3,5-dibromo-4-hydroxyphenethyl)-3-(4-(3-morpholinopropoxy)phenyl)urea]: the IC50 in assay [1] was determined as 0.167 ± 0.0136 µM. As to `O=C(NCCc1cc(Br)c(O)c(Br)c1)Nc1cccc(Cl)c1` [4i, 1-(3-chlorophenyl)-3-(3,5-dibromo-4-hydroxyphenethyl)urea], the IC50 in assay [1] was 0.0139 ± 0.0027 µM. For `CCCCOc1ccc(NC(=O)NCCc2cc(Br)c(O)c(Br)c2)cc1` [4d, 1-(4-butoxyphenyl)-3-(3,5-dibromo-4-hydroxyphenethyl)urea], in assay [1], the IC50 came to 0.914 ± 0.0443 µM. On the same count and under the same terms, for `COc1ccc(NC(=O)NCCc2cc(Br)c(O)c(Br)c2)cc1` [4a, 1-(3,5-dibromo-4-hydroxyphenethyl)-3-(4-methoxyphenyl)urea] the value was 0.265 ± 0.0207 µM; for `CC(C)Oc1ccc(NC(=O)NCCc2cc(Br)c(O)c(Br)c2)cc1` [4h, 1-(3,5-dibromo-4-hydroxyphenethyl)-3-(4-isopropoxyphenyl)urea], 0.85 ± 0.0327 µM; for `CCCOc1ccc(NC(=O)NCCc2cc(Br)c(O)c(Br)c2)cc1` [4c, 1-(3,5-dibromo-4-hydroxyphenethyl)-3-(4-propoxyphenyl)urea], 0.297 ± 0.0175 µM.

With `COCCOc1ccc(NC(=O)NCCc2cc(Br)c(O)c(Br)c2)cc1` [4o, 1-(3,5-dibromo-4-hydroxyphenethyl)-3-(4-(2-methoxyethoxy)phenyl)urea], the half-inhibitory concentration (IC50) in assay [1] is 0.0113 ± 0.0262 µM. Regarding `O=C(NCCc1cc(Br)c(O)c(Br)c1)Nc1ccccc1F` [4m, 1-(3,5-dibromo-4-hydroxyphenethyl)-3-(2-fluorophenyl)urea], the IC50 in assay [1] was determined as 0.0102 ± 0.0023 µM; in assay [2] (Homo sapiens, PC-9, wild-type PC9, MTT, 24-hour treatment, 0–100 μM, read-out: IC50, growth inhibition), 55.5 µM; in assay [3] (Homo sapiens, gefitinib-resistant PC9/GR, MTT, 24-hour treatment, 0–100 μM, read-out: IC50, growth inhibition), 39 µM. The “MTT, PC9, value relative to control (=100), single replicate” value in assay [2] (25 (μM)) was 72.71 and 78.44 and 89.41 and 73.662; in assay [2] (50 (μM)), 73.32 and 75.35 and 64.23 and 80.16; in assay [2] (75 (μM)), 63.32 and 73.36 and 69.44 and 65.21; in assay [2] (100 (μM)) it was 61.89 and 69.88 and 70.31 and 63.67. Moreover, the “MTT, PC9/GR, value relative to control (=100), single replicate” value in assay [3] (25 (μM)) was 62.45 and 66.61 and 79.63 and 68.61; in assay [3] (50 (μM)) it was 61.78 and 67.43 and 60.72 and 69.73; in assay [3] (75 (μM)), 48.89 and 53.34 and 39.63 and 40.04; in assay [3] (100 (μM)) it was 37.64 and 39.62 and 40.69 and 41.33. The “selectivity towards cells with the drug-resistant phenotype” value in assay [3] (PC9/GR versus PC9) was “did not demonstrate significant selectivity”. In the case of `COc1c(Br)cc(CCNC(=O)Nc2ccc(OCCCN3CCOCC3)cc2)cc1Br` [6g], in assay [4], the IC50 is 0.0117 ± 0.003 µM.

As to `CCOc1ccc(NC(=O)NCCc2cc(Br)c(O)c(Br)c2)cc1` [4b, 1-(3,5-dibromo-4-hydroxyphenethyl)-3-(4-ethoxyphenyl)urea], the IC50 in assay [1] worked out at 0.17 ± 0.0121 µM. As for `Cc1ccc(NC(=O)NCCc2cc(Br)c(O)c(Br)c2)cc1` [4n, 1-(3,5-dibromo-4-hydroxyphenethyl)-3-(p-tolyl)urea], the IC50 in assay [1] was determined as 0.0387 ± 0.0081 µM. In the case of `O=C(NCCc1cc(Br)c(O)c(Br)c1)Nc1ccc(Br)cc1` [4k, 1-(4-bromophenyl)-3-(3,5-dibromo-4-hydroxyphenethyl)urea], the IC50 in assay [1] is 0.0511 ± 0.0095 µM.
